Literature values, collected in patent publication US8377956B2, “Use of (3R)-4-{[(1S)-2-methyl-1-(2-methylpropanoyloxy)propoxy]carbonylamino}-3-(4-chlorophenyl) butanoic acid for treating urinary incontinence” (XenoPort, Inc., priority 2010, dated 2013).

Tested on: patients with unstable bladder syndrome
Conditions: 5 mg four times per day

In the case of `NCC(CC(=O)O)c1ccc(Cl)cc1` (racemic) [baclofen, (±)-4-Amino-3-(4-chlorophenyl)butanoic acid], the “diurnal and nocturnal frequency of micturition” value is given as “significantly improve” and the severity of incontinence is given as “significantly improve”.
